Calls of active or inactive are those of the source. No cut-off for these calls is given here.
Columns and labels:
[1] = biological target: T1, Histone deacetylase 8 (Homo sapiens) (UniProt Q9BY41); assay: Inhibition of HDAC8 (unknown origin) assessed as residual activity at 1.23 x 10^-7M (reference value: 100%); conditions: dose 1.23 10^-7M
T1 sequence (whole entry): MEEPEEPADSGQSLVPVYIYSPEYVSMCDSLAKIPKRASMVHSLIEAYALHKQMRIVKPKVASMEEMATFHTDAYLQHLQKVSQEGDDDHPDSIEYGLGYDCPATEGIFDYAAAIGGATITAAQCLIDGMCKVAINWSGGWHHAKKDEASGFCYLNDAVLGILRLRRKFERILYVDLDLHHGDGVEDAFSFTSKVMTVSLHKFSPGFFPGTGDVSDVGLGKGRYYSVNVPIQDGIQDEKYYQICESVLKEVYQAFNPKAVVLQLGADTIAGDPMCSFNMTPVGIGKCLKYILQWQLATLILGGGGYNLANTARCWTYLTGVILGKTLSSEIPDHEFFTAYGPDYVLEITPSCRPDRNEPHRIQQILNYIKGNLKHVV

[2] = biological target: Histone deacetylase 9 (Homo sapiens) (UniProt Q9UKV0); assay: Inhibition of HDAC9 (unknown origin) assessed as residual activity at 5.08 x 10^-10M (reference value: 97.55%); conditions: dose 5.08 10^-10M
Histone deacetylase 9 (Homo sapiens), sequence (Q9UKV0 whole entry, the tested form may be a part): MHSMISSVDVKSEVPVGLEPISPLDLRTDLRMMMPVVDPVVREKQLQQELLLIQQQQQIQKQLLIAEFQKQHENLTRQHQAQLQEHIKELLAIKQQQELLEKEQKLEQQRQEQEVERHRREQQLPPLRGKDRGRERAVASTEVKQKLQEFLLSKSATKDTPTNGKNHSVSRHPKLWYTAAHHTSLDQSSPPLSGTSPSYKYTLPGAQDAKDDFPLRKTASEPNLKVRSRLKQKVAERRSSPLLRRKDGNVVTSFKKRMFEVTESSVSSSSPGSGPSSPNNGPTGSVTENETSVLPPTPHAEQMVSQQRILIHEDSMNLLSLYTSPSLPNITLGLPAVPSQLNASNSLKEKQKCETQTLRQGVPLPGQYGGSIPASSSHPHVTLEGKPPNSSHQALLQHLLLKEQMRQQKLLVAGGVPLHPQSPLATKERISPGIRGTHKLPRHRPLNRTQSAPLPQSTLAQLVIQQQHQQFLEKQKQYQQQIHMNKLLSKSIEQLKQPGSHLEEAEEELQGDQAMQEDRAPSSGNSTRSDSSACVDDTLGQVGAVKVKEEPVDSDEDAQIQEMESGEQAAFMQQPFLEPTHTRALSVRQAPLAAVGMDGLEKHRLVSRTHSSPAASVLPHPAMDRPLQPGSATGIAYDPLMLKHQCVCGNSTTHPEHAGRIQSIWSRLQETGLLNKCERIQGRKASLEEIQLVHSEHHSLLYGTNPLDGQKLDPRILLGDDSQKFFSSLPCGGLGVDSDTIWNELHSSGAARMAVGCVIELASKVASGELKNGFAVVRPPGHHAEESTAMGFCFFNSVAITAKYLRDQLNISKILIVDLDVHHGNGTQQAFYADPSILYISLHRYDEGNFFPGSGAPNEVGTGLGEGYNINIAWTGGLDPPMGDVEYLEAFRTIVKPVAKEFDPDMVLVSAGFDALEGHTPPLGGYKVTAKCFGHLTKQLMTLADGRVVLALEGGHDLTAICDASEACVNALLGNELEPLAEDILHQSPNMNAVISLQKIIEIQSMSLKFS

Histone deacetylase 3 = Histone deacetylase 3 (Homo sapiens, UniProt O15379); assay: Inhibition of HDAC3 (unknown origin) using p53 residues 379 to 382 [RHKK(Ac)] as fluorogenic substrate assessed as residual activity at 1.52 x 10^-9M (reference value: 103.08%); conditions: dose 1.52 10^-9M
Histone deacetylase 3, sequence (O15379 whole entry, the tested form may be a part): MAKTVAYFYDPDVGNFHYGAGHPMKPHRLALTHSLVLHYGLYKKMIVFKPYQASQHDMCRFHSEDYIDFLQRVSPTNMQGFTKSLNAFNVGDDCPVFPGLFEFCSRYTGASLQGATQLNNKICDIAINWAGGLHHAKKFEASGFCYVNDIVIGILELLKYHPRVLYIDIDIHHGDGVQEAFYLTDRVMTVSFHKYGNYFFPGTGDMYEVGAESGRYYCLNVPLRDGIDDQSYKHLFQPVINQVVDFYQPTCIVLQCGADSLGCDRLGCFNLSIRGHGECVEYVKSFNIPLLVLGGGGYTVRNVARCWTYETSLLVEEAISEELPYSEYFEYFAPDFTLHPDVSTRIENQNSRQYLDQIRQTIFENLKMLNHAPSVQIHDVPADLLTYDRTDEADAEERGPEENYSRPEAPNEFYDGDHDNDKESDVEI

[3] = biological target: T2, Polyamine deacetylase HDAC10 (Homo sapiens) (UniProt Q969S8); assay: Inhibition of HDAC10 (unknown origin) assessed as residual activity at 5.08 x 10^-10M (reference value: 101.54%); conditions: dose 5.08 10^-10M
T2 sequence (whole entry): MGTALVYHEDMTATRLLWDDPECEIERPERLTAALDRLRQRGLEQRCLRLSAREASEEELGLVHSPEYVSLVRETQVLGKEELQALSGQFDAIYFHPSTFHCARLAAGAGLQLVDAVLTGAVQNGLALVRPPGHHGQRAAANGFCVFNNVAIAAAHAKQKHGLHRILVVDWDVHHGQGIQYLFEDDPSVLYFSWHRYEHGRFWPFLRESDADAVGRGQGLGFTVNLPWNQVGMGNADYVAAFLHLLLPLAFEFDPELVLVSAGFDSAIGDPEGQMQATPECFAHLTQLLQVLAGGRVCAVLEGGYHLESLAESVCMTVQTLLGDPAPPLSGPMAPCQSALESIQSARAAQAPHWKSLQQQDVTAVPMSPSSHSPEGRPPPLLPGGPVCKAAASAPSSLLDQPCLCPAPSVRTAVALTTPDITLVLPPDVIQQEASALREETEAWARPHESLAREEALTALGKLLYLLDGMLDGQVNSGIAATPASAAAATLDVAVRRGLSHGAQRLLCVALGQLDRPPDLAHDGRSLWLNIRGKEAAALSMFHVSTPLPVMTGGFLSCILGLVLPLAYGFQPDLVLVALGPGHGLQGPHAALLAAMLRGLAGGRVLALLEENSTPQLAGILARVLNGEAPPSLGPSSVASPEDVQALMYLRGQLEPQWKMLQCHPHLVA

[4] = biological target: Histone deacetylase 9 (Homo sapiens) (UniProt Q9UKV0); assay: Inhibition of HDAC9 (unknown origin) assessed as residual activity at 1.52 x 10^-9M (reference value: 97.55%); conditions: dose 1.52 10^-9M
HL-60 [5] = assay: Induction of autophagy in human HL-60 cells assessed as increase in autophagic flux by measuring increase in red-stained cells at 0.5 to 1 times IC50 by acridine orange staining based microscopic analysis; type: functional, cell-based
HL-60 [6] = assay: Induction of cell cycle arrest in G0/G1 phase in human HL-60 cells assessed as downregulation of p-AKT protein expression at 0.5 to 1 times IC50 by Western blot analysis; type: functional, cell-based
[7] = biological target: T3, Protein deacetylase HDAC6 (Homo sapiens) (UniProt Q9UBN7); assay: Inhibition of HDAC6 (unknown origin) using p53 residues 379 to 382 [RHKK(Ac)] as fluorogenic substrate assessed as residual activity at 1.23 x 10^-7M (reference value: 101.06%); conditions: dose 1.23 10^-7M
T3 sequence (whole entry): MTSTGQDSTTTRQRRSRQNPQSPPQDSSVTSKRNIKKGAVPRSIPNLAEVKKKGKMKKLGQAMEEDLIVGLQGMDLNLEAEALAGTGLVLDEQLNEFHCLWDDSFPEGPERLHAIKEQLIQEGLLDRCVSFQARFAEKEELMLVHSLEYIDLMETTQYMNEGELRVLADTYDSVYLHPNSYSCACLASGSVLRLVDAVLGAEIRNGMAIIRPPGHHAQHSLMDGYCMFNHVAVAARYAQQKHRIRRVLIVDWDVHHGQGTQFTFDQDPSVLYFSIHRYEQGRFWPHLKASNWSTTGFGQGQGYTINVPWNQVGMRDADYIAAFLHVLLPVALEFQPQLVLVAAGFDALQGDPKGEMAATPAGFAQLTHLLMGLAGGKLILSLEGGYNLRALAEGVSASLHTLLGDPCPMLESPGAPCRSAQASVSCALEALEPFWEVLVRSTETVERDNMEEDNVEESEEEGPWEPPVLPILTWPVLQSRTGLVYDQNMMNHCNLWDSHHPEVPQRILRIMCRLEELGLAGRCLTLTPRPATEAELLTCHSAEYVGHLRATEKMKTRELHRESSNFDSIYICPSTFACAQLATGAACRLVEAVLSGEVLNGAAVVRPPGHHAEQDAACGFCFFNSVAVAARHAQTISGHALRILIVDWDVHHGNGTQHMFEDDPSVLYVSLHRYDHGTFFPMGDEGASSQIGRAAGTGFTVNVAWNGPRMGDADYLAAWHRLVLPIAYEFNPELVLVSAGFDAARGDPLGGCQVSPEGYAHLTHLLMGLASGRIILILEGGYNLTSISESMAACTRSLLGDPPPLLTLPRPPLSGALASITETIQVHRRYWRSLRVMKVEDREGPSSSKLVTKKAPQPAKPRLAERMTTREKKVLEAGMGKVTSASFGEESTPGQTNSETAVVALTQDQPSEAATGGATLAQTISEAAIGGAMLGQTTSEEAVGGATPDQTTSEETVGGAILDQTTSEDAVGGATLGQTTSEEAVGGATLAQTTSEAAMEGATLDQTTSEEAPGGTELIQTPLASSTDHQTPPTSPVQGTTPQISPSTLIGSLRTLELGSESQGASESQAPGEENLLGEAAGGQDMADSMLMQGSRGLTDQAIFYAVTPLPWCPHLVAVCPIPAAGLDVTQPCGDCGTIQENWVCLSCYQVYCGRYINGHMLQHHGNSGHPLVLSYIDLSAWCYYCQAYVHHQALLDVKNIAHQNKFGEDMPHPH

Histone deacetylase 2 = Histone deacetylase 2 (Homo sapiens, UniProt Q92769); assay: Inhibition of HDAC2 (unknown origin) assessed as residual activity at 3.33 x 10^-6M (reference value: 99.81%); conditions: dose 3.33 10^-6M
Histone deacetylase 2, sequence (Q92769 whole entry): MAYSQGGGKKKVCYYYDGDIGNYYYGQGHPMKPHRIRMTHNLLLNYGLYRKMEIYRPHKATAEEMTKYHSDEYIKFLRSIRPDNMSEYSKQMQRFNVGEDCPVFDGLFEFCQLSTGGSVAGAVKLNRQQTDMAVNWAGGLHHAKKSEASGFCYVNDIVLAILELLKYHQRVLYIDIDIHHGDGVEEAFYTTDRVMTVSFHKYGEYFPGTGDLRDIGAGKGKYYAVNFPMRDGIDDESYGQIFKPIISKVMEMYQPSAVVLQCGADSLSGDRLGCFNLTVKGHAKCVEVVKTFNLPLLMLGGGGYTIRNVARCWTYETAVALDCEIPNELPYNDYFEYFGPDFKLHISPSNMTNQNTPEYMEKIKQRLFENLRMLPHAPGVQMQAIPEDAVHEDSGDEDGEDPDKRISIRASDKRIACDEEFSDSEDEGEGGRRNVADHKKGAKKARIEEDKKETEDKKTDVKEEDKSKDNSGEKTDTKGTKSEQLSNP

For `NC(=O)c1cccc2[nH]c(-c3ccc(NCc4ccc(C(=O)Nc5ccccc5N)cc4)cc3)nc12`, which Activity [1] is on record?
The Activity was 104%.

And the Activity [2]?
The Activity was 93.7%.

What about the Activity (Histone deacetylase 3) of the same molecule?
The Activity was 97.7%.

What about the Activity [3] of the same molecule?
The Activity was 101%.

What about the Activity [4] of the same molecule?
The Activity was 97.8%.

And the Activity (HL-60 [5])?
The Activity was “Active”.

And the Activity (HL-60 [6])?
Its Activity is “Active”.

And the Activity [7]?
The Activity was 91.9%.

What about the Activity (Histone deacetylase 2) of the same molecule?
Its Activity is 5.75%.
